Results on twelve compounds are retold here after ChEMBL document CHEMBL1139988, “Discovery of structurally diverse HIV-1 integrase inhibitors based on a chalcone pharmacophore” (Bioorg Med Chem, 2007).

SMILES strings stand for the structures.

The target in experiment [1] is T1, Human immunodeficiency virus type 1 integrase (Human immunodeficiency virus 1, UniProt Q7ZJM1). The experiment can be described thus: Inhibition of HIV1 integrase 3'-end processing activity.
Experiment [2] has as its target T1, Human immunodeficiency virus type 1 integrase. Kind of experiment: Inhibition of HIV1 integrase strand transfer activity.
For experiment [3] the target is unchanged. Kind of experiment: Inhibition of HIV1 integrase 3'-end processing activity in presence of magnesium cofactor.
Experiment [4] shares this target. The experiment can be described thus: Inhibition of HIV1 integrase strand transfer activity in presence of magnesium cofactor.

T1 sequence (Q7ZJM1 whole entry): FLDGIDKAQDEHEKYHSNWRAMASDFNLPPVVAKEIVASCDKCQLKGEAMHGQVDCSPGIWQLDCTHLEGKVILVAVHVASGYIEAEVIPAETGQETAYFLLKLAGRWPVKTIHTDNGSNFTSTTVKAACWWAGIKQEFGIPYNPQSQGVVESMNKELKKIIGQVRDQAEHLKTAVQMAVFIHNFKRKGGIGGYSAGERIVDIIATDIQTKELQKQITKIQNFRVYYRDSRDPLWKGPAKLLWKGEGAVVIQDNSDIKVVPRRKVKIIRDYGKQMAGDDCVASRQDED

For `O=C(/C=C/c1ccccc1O)c1ccc(O)cc1O`, the IC50 was found to be 53 µM in experiment [1] and 47 µM in experiment [2].

As to `CCOc1ccc(-c2c(C#N)c(N)nc(SCC(=O)c3cc4cc(Br)cc(Br)c4oc3=O)c2C#N)cc1`, the IC50 in experiment [3] was 17 µM; in experiment [1], 6 µM; in experiment [2] it was 4 µM; in experiment [4], 9.6 µM.

Turning to `O=[N+]([O-])c1cc(Br)cc(/C=N/Nc2nc(Nc3ccccc3)nc(Nc3ccccc3)n2)c1O`, the IC50 in experiment [1] came out at 1.9 µM; in experiment [2], 0.6 µM.

Take `CCc1cccc2c(SCC(=O)NNC(=O)c3ccccc3[N+](=O)[O-])nc(-c3ccc(F)cc3)nc12`: the IC50 was greater than 100 µM in experiment [1] and 100 µM in experiment [2].

Consider `O=C(O)c1cc(-c2ccc(/C=N/Nc3nc4nonc4nc3Nc3ccccc3F)o2)ccc1Cl`, for which the results for the IC50 in experiment [1] and in experiment [2] were 7 µM and 4 µM, respectively.

Turning to `CCN(CC)c1nc(N/N=C/c2ccc([N+](=O)[O-])cc2)nc(Nc2ccc(C)c(Cl)c2)n1`, the IC50 stood at 192 µM in experiment [1] and 200 µM in experiment [2].

Take `O=C(Nc1ccccc1C(=O)O)c1ccc(C(=O)Nc2ccccc2C(=O)O)cc1`: the IC50 in experiment [1] came to 67 µM; in experiment [2], 32 µM.

For `COc1cccc(/C=C/C(=O)c2ccccc2)c1O`, the IC50 in experiment [1] and in experiment [2] was 2 µM in each case.

Turning to `COc1cc([N+](=O)[O-])cc(/C=N/Nc2nc(Nc3ccccc3)nc(Nc3ccccc3)n2)c1O`, the IC50 in experiment [1] and in experiment [2] was 29 µM in each case.

As to `O=C(CNC(=O)c1ccc(Cl)cc1)OCC(=O)c1ccc([N+](=O)[O-])cc1`, the IC50 was determined as 579 µM in experiment [1] and 542 µM in experiment [2].

For `Cc1ccc(NP(=O)(Oc2ccccc2)Oc2ccccc2)cc1`, the 50% inhibitory concentration (IC50) in experiment [1] and in experiment [2] was greater than 1000 µM throughout.

As to `Cc1ccc(O)c(/C=N/Nc2nc3c(c(=O)[nH]c(=O)n3C)n2Cc2ccccc2)c1`, the IC50 in experiment [1] and in experiment [2] was greater than 100 µM in each case.
